Earlier results on 1 substance are cited in paper PMC9109461, “Challenges and opportunities in the development of metal-based anticancer theranostic agents” (Bioscience Reports, 2022).

In one series the test system is HeLa cells. On the set-up: method as in PMID 28948792. As to conditions: MTT assay.
A further series has as its system A549R. More on the design: method as in PMID 30888144. As to conditions: A549R cells.
A further series has as its system CaSki cells. More on the design: method as in PMID 30551086.

For [(cis-Pt(NH3)2Cl2] [cisplatin], the IC50 in the series on HeLa cells is 3 ± 1.2 µM; in the series with A549R, 51.3 ± 1.9 µM; in the series with CaSki cells, 4.2 µM.
